Data reported in the Kinase Knowledgebase extract (Sharma et al. 2016).

Legend:
[1] = target: CDK2 (UniProt P24941); test: Enzyme Assay
[2] = target: EGFR (UniProt P00533)
Chain of EGFR (P00533 whole entry, looked up): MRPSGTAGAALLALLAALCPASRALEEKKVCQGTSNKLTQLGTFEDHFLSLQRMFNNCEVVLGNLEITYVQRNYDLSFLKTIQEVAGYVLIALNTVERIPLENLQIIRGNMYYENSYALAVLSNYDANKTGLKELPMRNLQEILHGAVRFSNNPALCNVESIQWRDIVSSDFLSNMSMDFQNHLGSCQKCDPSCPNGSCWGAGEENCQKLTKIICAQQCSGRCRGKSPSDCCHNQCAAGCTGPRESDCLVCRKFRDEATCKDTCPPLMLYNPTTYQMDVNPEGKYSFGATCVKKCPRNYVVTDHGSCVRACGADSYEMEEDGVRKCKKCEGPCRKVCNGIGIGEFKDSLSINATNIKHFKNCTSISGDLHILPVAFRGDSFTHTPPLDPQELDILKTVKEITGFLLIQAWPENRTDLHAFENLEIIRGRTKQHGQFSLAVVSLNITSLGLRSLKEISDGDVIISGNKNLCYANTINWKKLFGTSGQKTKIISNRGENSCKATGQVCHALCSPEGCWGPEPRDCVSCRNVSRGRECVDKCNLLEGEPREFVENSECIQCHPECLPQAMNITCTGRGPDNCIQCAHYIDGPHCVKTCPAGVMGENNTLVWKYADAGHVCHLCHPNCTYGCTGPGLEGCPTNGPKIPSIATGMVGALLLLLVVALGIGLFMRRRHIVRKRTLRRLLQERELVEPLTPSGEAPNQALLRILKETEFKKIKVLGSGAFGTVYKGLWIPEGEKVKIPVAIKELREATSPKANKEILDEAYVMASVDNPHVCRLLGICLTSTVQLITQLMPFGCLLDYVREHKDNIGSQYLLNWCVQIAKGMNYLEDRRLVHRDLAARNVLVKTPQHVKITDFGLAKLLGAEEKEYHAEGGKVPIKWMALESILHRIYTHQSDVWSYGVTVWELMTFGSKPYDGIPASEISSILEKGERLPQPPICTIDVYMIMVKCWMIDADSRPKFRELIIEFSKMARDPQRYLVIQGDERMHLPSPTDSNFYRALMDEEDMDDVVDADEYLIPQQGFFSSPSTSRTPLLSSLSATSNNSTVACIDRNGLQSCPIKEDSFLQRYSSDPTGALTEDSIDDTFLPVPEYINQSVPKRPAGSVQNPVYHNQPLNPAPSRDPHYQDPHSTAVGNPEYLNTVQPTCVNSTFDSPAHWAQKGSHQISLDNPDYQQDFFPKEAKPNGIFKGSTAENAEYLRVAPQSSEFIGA

| IC50 [1] [µM] | IC50 [2] [µM] | Compound |
| --- | --- | --- |
| < 25 | < 25 | Cc1nc(N2CCN(COCc3ccccc3)CC2)nc2[nH]c(-c3c(NC[C@@H](O)c4cccc(Cl)c4)cc[nH]c3=O)nc12 |
| < 25 | < 25 | Cc1nc(N2CCN(Cc3ccccn3)CC2)nc2[nH]c(-c3c(NC[C@@H](O)c4cccc(Cl)c4)cc[nH]c3=O)nc12 |
| < 25 | < 25 | Cc1nc(N2CCN(C(=O)OC(C)(C)C)CC2)nc2[nH]c(-c3c(NC[C@@H](O)c4cccc(Cl)c4)cc[nH]c3=O)nc12 |
| < 25 | < 25 | O=c1[nH]c2cc3nc(-c4c(NC[C@@H](O)c5cccc(Cl)c5)cc[nH]c4=O)[nH]c3cc2[nH]1 |
| < 25 | < 25 | Cc1nc(N2CCOCC2)nc2[nH]c(-c3c(NC[C@@H](O)c4cccc(Cl)c4)cc[nH]c3=O)nc12 |
| < 25 | < 25 | Cc1nc(N2CCNCC2)nc2[nH]c(-c3c(NC[C@@H](O)c4cccc(Cl)c4)cc[nH]c3=O)nc12 |
| < 25 | < 25 | O=c1[nH]ccc(NC[C@@H](O)c2cccc(Cl)c2)c1-c1nc2cc3cn[nH]c3cc2[nH]1 |
| < 25 | < 25 | COc1ccc([C@H](O)CNc2cc[nH]c(=O)c2-c2nc3cc4cn[nH]c4cc3[nH]2)cc1Br |
| < 25 | < 25 | Cc1nc(N2CCN(CC3CC3)CC2)nc2[nH]c(-c3c(NC[C@@H](O)c4cccc(Cl)c4)cc[nH]c3=O)nc12 |
| < 25 | < 25 | Cc1nc(N2CCN(Cc3nccs3)CC2)nc2[nH]c(-c3c(NC[C@@H](O)c4cccc(Cl)c4)cc[nH]c3=O)nc12 |
| < 25 | < 25 | Cc1nc(N2CCN(Cc3ncc[nH]3)CC2)nc2[nH]c(-c3c(NC[C@@H](O)c4cccc(Cl)c4)cc[nH]c3=O)nc12 |
| < 25 | < 25 | COc1ccc(C(O)CNc2cc[nH]c(=O)c2-c2nc3cnccc3[nH]2)cc1Br (configuration not stated) |
| < 25 | < 25 | CCN1CCN(c2nc(C)c3nc(-c4c(NC[C@@H](O)c5cccc(Cl)c5)cc[nH]c4=O)[nH]c3n2)CC1 |
| < 25 | < 25 | Cc1nc(N2CCN(Cc3nccn3C)CC2)nc2[nH]c(-c3c(NC[C@@H](O)c4cccc(Cl)c4)cc[nH]c3=O)nc12 |
| < 25 | < 25 | O=c1[nH]ccc(NC[C@@H](O)c2cccc(Br)c2)c1-c1nc2cc3cn[nH]c3cc2[nH]1 |
| < 25 | < 25 | Cc1nc(N2CCN(Cc3cccn3C)CC2)nc2[nH]c(-c3c(NC[C@@H](O)c4cccc(Cl)c4)cc[nH]c3=O)nc12 |
| < 25 | < 25 | O=c1[nH]ccc(NCC(O)c2cccc(Br)c2)c1-c1nc2cnccc2[nH]1 (configuration not stated) |
| < 25 | < 25 | Cc1nc(N2CCN(Cc3cccc(F)c3)CC2)nc2[nH]c(-c3c(NC[C@@H](O)c4cccc(Cl)c4)cc[nH]c3=O)nc12 |
| < 25 | < 25 | O=c1[nH]ccc(NCC(O)c2cccc(Cl)c2)c1-c1nc2cnccc2[nH]1 (configuration not stated) |
| < 25 | < 25 | CCC(C)CN1CCN(c2nc(C)c3nc(-c4c(NC[C@@H](O)c5cccc(Cl)c5)cc[nH]c4=O)[nH]c3n2)CC1 (some centres not stated) |
| < 25 | < 25 | CCOC(=O)C1CC1CN1CCN(c2nc(C)c3nc(-c4c(NC[C@@H](O)c5cccc(Cl)c5)cc[nH]c4=O)[nH]c3n2)CC1 (some centres not stated) |
